Source: PMC5064019, “Nicotinamide is an endogenous agonist for a C. elegans TRPV OSM-9 and OCR-4 channel” (Nature Communications, 2016)

Key:
[1] = molecular target: T1, Nan–Iav TRPV channel (Drosophila melanogaster, UniProt Q9VUD5+Q9W3W0); assay: two-electrode voltage clamp, Xenopus oocytes, Hill fit; format: cell-based; conditions: read-out: K1/2
T1 construct: iav cDNA in pCR4-TOPO, synthesized nan cDNA in pcDNA3.1; cRNAs co-injected in Xenopus oocytes; heteromeric channel
T1 sequence (Q9VUD5 1-833): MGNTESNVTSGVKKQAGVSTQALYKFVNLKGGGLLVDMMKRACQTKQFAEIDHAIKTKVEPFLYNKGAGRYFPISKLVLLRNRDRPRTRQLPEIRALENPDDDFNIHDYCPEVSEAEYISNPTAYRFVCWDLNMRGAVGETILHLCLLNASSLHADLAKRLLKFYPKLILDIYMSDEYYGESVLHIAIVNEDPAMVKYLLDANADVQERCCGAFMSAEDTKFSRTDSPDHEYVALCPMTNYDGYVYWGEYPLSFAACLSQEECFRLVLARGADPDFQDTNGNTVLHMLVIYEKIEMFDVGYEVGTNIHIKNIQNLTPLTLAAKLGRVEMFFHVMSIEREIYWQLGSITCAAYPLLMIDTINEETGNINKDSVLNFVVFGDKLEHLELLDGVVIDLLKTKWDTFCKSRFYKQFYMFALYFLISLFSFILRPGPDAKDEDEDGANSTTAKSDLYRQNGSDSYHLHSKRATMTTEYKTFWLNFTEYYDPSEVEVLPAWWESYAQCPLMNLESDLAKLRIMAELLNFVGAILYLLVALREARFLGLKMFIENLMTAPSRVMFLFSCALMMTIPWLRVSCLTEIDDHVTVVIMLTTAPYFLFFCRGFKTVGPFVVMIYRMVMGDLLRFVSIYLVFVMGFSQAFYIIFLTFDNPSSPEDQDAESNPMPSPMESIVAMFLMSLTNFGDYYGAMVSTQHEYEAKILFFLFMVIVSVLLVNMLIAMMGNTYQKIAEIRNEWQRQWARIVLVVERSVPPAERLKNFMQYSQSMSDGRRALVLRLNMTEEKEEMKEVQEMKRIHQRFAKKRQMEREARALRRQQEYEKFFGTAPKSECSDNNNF
T1 sequence (Q9W3W0 1-1123): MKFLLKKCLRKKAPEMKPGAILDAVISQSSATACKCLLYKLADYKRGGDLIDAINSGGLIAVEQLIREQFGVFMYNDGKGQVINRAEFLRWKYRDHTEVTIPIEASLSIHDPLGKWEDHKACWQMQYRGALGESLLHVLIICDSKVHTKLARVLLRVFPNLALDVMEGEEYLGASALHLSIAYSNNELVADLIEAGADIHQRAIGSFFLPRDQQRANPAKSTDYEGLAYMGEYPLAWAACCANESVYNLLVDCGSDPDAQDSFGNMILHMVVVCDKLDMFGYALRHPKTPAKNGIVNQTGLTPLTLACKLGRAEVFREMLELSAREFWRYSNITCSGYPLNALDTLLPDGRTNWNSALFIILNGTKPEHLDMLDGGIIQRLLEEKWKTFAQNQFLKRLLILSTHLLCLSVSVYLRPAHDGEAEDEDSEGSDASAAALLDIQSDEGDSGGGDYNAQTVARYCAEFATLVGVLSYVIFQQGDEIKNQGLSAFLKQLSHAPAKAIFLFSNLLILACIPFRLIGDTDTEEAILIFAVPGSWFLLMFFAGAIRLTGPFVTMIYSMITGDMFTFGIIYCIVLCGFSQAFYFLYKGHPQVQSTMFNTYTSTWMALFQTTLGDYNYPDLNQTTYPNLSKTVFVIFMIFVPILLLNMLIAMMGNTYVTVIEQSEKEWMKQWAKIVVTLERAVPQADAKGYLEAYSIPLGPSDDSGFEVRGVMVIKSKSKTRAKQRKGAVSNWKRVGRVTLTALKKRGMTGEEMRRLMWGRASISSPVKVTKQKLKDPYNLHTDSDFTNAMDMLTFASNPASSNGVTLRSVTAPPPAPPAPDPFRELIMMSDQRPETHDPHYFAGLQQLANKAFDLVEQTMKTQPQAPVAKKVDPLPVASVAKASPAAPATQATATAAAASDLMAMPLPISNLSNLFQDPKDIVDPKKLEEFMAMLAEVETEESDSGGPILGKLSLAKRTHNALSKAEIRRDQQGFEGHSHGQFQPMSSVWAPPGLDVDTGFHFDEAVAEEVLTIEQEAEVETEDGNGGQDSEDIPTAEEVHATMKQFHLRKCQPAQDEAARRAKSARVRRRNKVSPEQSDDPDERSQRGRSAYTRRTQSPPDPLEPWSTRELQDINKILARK

[2] = molecular target: T2, OSM-9–OCR-4 TRPV channel (Caenorhabditis elegans, UniProt G5EBV8+Q9N3Y9); assay: as above; format: cell-based; conditions: read-out: K1/2
T2 construct: untagged cDNAs (osm-9 in pGEMHE, ocr-4 in pOX); cRNAs co-injected in Xenopus oocytes; heterotetramer, likely 2:2
T2 sequence (G5EBV8 1-937): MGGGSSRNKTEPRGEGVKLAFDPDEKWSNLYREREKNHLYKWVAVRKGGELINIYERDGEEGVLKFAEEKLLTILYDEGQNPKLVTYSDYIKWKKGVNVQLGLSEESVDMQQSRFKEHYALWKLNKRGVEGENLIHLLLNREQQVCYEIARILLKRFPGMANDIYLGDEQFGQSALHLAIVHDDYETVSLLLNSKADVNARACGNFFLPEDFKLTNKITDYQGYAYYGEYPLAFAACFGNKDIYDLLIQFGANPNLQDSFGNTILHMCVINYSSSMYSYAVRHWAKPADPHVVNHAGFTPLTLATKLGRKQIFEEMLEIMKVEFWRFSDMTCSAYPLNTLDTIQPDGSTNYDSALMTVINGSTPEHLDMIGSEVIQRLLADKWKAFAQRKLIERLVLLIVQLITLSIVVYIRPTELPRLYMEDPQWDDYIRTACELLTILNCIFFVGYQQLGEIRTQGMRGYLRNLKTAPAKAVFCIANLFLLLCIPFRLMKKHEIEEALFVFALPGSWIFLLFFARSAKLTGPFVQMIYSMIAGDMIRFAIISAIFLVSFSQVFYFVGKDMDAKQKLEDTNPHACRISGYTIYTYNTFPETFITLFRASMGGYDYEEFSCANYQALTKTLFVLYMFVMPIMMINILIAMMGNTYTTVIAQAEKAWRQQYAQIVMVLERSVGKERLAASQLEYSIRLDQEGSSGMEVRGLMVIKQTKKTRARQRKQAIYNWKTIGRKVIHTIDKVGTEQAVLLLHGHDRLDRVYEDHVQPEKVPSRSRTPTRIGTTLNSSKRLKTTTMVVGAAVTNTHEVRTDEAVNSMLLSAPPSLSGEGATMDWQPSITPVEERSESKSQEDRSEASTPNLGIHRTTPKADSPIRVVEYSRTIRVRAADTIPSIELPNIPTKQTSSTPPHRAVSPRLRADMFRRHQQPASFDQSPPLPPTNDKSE
T2 sequence (Q9N3Y9 1-756): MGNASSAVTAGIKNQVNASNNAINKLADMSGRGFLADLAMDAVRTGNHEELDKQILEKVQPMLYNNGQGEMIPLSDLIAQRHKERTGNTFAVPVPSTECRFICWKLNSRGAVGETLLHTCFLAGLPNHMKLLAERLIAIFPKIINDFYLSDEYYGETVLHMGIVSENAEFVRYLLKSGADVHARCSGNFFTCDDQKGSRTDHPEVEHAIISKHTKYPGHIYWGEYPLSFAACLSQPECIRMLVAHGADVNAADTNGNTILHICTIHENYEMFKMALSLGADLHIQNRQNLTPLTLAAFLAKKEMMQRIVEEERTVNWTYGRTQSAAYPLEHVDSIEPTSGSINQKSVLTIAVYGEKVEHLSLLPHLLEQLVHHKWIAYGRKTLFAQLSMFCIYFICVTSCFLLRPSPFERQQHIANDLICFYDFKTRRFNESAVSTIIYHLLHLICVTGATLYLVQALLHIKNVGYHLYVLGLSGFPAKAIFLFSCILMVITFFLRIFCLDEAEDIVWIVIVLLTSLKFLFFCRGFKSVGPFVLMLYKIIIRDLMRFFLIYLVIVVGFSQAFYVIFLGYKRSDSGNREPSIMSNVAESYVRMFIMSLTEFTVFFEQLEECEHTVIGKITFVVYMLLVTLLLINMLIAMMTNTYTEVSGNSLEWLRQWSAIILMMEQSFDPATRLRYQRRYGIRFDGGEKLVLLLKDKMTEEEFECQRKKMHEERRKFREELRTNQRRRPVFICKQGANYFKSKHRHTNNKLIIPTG

Q: For NC(=O)c1cccnc1 [nicotinamide], which EC50 [1] is on record?
A: 14.4 ± 1 µM

Q: What about the EC50 [2] of the same molecule?
A: 63.3 ± 13.2 µM
